Where two headings read alike, the source gives them in different places.
What was measured:
PI3 K Alpha = PI3 K Alpha (Homo sapiens, UniProt P42336); experiment: PI3 kinase phosphorylation assays (homogenous solution phase, one step solid phase, ATP depletion/KinaseGlo); assay type: biochemical
A2780 cells = experiment: Viability assay in A2780 (Cell Titer Glo); assay type: cell-based, human; settings: Homo sapiens
Method in brief: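 EC50 values come from Cell Titer Glo luminescence after 72 hrs of compound exposure at 37° C, run in duplicate. A2780 cells were plated at 1,000 per well in DMEM with 10% FBS and dosed with 3-fold serial dilutions.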

[1] = test system: pSer473-Akt in A2780 cells; experiment: pSer473 Akt assay to monitor PI3K pathway in A2780 cells (MSD); assay type: cell-based; settings: Homo sapiens
Method in brief: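 EC50 is derived from percent inhibition of Akt Ser473 phosphorylation, normalised to total Akt and compared with DMSO-only wells, read by MSD immunoassay. Lysates came from A2780 cells plated overnight at 15,000/well and exposed to compound for one hour at 37 °C.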

[2] = A2780 cells, read-out: A2780 Cell prolif. EC50
[3] = A2780 cells, read-out: A2780 pAKT 473 EC50
[4] = A2780, read-out: A2780 Cell prolif. EC50
[5] = A2780, read-out: A2780 pAKT 473 EC50

Chain of PI3 K Alpha (P42336 whole entry): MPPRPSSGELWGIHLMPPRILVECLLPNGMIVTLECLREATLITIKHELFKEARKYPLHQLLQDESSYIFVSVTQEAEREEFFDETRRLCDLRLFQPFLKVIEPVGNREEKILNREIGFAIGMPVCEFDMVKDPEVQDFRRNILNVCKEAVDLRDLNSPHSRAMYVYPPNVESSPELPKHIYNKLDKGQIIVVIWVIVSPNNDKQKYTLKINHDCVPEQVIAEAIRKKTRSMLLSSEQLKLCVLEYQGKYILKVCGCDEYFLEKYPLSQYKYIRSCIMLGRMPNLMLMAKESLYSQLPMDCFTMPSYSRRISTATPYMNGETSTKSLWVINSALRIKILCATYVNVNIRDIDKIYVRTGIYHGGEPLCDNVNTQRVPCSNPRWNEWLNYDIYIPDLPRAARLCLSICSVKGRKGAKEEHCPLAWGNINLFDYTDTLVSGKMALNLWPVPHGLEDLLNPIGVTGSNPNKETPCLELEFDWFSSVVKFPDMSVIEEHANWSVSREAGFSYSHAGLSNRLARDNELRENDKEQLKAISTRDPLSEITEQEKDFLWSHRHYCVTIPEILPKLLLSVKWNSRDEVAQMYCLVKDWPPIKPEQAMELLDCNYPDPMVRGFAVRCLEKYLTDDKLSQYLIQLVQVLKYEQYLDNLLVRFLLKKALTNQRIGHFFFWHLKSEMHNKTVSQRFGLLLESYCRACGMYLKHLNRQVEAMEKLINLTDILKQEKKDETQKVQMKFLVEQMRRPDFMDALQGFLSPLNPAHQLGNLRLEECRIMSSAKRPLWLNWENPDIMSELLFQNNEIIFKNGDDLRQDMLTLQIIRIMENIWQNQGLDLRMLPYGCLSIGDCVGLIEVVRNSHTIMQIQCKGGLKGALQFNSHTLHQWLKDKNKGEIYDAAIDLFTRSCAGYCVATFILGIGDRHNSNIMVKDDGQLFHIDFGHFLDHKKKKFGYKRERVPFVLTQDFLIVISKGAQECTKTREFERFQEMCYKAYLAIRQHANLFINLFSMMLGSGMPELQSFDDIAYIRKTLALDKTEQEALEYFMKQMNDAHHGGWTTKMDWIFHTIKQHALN
Chain of PI3 K Alpha (P27986 whole entry partner): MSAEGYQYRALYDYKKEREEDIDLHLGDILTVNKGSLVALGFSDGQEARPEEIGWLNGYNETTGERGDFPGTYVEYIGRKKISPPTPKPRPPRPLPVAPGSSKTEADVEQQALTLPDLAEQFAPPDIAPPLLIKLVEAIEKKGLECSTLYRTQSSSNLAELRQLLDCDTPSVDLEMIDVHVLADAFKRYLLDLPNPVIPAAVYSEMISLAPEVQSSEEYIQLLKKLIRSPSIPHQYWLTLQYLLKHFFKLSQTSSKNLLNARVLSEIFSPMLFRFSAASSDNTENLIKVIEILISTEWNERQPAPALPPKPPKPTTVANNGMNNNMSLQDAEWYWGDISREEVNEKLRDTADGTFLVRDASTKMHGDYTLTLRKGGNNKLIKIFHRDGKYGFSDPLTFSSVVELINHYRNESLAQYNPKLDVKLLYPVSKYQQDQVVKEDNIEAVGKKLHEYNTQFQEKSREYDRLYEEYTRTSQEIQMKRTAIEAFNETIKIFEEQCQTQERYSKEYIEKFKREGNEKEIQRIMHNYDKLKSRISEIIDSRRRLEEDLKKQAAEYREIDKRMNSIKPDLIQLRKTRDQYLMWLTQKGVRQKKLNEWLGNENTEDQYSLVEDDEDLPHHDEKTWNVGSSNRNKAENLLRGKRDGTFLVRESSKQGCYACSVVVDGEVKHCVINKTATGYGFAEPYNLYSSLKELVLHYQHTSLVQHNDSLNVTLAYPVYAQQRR

Compound | IC50 (PI3 K Alpha; read-out: PI3K Alpha IC50) [nM] | EC50 (A2780 cells; [2]) [nM] | EC50 [1, 3] [nM] | IC50 (PI3 K Alpha) [nM] | EC50 (A2780 cells; [4]) [nM] | EC50 [1, 5] [nM]
CC(=O)Nc1cn2cc(-c3cnc(N)c(Oc4ccc(F)cc4)n3)ccc2n1 [Example 63, N-(6-(5-amino-6-(4-fluorophenoxy)pyrazin-2-yl)imidazo[1,2-a]pyridin-2-yl)acetamide] | < 1000 | < 1000 | < 1000 | – | – | –
CC(=O)Nc1cn2cc(-c3cnc(N)c(OC4CCC4)n3)ccc2n1 [Example 64, N-(6-(5-amino-6-cyclobutoxy-pyrazin-2-yl)imidazo[1,2-a]pyridin-2-yl)acetamide] | < 1000 | < 1000 | < 1000 | – | – | –
CC(=O)Nc1cn2cc(-c3cnc(N)c(Oc4cccc(F)c4)n3)ccc2n1 [Example 65, N-(6-(5-amino-6-(3-fluorophenoxy)pyrazin-2-yl)imidazo[1,2-a]pyridin-2-yl)acetamide] | < 1000 | < 1000 | < 1000 | – | – | –
CC(=O)Nc1nc2ccc(-c3cnc(N)c(C(F)(F)F)c3)cn2c1C#Cc1ccncc1 [Example 68, N-(6-(6-amino-5-(trifluoromethyl)pyridin-3-4-ylethynyl)imi-dazo[1,2-a]pyridin-2-yl)acetamide] | – | – | – | < 1000 | < 1000 | < 1000
COCCCOc1nc(-c2ccc3nc(NC(C)=O)cn3c2)cnc1N [Example 73] | < 1000 | < 1000 | < 1000 | – | – | –
CC(=O)Nc1cn2cc(-c3cnc(N)c(Oc4ccccc4)n3)ccc2n1 [Example 75, N-(6-(5-amino-6-phenoxypyrazin-2-yl)imidazo[1,2-a]pyridin-2-yl)acetamide] | < 1000 | < 1000 | < 1000 | – | – | –
CC(=O)Nc1cn2cc(-c3cnc(N)c(/C=N/NCC(F)(F)F)c3)ccc2n1 [Example 76, (E)-N-(6-(6-amino-5-((2-(2,2,2-trifluoroethyl) hydrazono)methyl)pyridin-3-yl)imidazo[1,2-a]pyridin-2-yl)acetamide] | < 1000 | < 1000 | < 1000 | – | – | –
Nc1ncc(-c2ccc3nc(NC(=O)c4ccc(F)cc4)cn3c2)cc1C(F)(F)F [Example 78, N-(6-(6-amino-5-(trifluoromethyl)pyridin-3-yl)imidazo[1,2-a]pyridin-2-yl)-4-fluorobenzamide] | < 1000 | < 1000 | < 1000 | – | – | –
CC(=O)Nc1nc2ccc(-c3cnc(N)c(C(F)(F)F)c3)cn2c1C#Cc1cccnc1 [Example 83, N-(6-(6-amino-5-(trifluoromethyl)pyridin-3-yl)-3-(pyridin-3-ylethynyl)imi-dazo[1,2-a]pyridin-2-yl)acetamide] | – | – | – | < 1000 | < 1000 | < 1000
CC(=O)Nc1cn2nc(-c3cnc(N)c(-c4ccccc4)c3)ccc2n1 [Example 84, N-(6-(6-amino-5-phenylpyridin-3-yl)imidazo[1,2-b]pyridazin-2-yl)acetamide] | < 1000 | < 1000 | < 1000 | – | – | –
CC(=O)Nc1cn2cc(-c3cnc(N)c(-c4cccc(N5CCOCC5)c4)c3)ccc2n1 [Example 86, N-(6-(6-amino-5-(3-morpholino-phenyl)pyridin-3-yl)imidazo[1,2-a]pyridin-2-yl)acetamide] | < 1000 | < 1000 | < 1000 | – | – | –
CC(=O)Nc1cn2cc(-c3cnc(N)c(-c4cccc(C(F)(F)F)c4)c3)ccc2n1 [Example 88, N-(6-(6-amino-5-(3-(trifluoromethyl)phenyl)pyridin-3-yl)imidazo[1,2-a]pyridin-2-yl)acetamide] | < 1000 | < 1000 | < 1000 | – | – | –
CC(=O)Nc1cn2cc(-c3cnc(N)c(Oc4cccnc4)n3)ccc2n1 [Example 91, N-(6-(5-amino-6-(pyridin-3-yloxy)pyrazin-2-yl)imidazo[1,2-a]pyridin-2-yl)acetamide] | < 1000 | < 1000 | < 1000 | – | – | –
CC(=O)Nc1cn2cc(-c3cnc(N)c(-c4cccc(OC(F)(F)F)c4)c3)ccc2n1 [Example 92, N-(6-(6-amino-5-(3-(trifluoromethoxy)phenyl)pyridin-3-yl)imidazo[1,2-a]pyridin-2-yl)acetamide] | < 1000 | < 1000 | < 10000 | – | – | –
CC(=O)Nc1cn2cc(-c3cnc(N)c(-c4ccc(C(F)(F)F)cc4)c3)ccc2n1 [Example 93, N-(6-(6-amino-5-(4-(trifluoromethyl)phenyl)pyridin-3-yl)imidazo[1,2-a]pyridin-2-yl)acetamide] | < 1000 | < 1000 | < 1000 | – | – | –

Second part, led by results:

IC50 (PI3 K Alpha; read-out: PI3K Alpha IC50) [nM] | EC50 (A2780 cells; [2]) [nM] | EC50 [1, 3] [nM] | Compound | IC50 (PI3 K Alpha) [nM] | EC50 (A2780 cells; [4]) [nM] | EC50 [1, 5] [nM]
< 1000 | < 1000 | < 1000 | CN(C)CCCC(=O)Nc1cn2nc(-c3cnc(N)c(C(F)(F)F)c3)ccc2n1 [Example 66, N-(6-(6-amino-5-(trifluoromethyl)pyridin-3-yl)imidazo[1,2-b]pyridazin-2-yl)-4-(dimethylamino) butanamide] | – | – | –
< 1000 | < 1000 | < 1000 | CC(=O)Nc1cn2cc(-c3cnc(N)c(OC4CN(C(=O)OC(C)(C)C)C4)n3)ccc2n1 [Example 67, tert-butyl 3-(6-(2-acetamido-imidazo[1,2-a]pyridin-6-yl)-3-aminopyrazin-2-yloxy)axetidine-1-carboxylate] | – | – | –
< 1000 | < 1000 | < 1000 | Nc1ncc(-c2ccc3nc(NC(=O)CO[C@@H]4CCNC4)cn3n2)cc1C(F)(F)F [Example 69, (R)-N-(6-(6-amino-5-(trifluoromethyl)pyridin-3-yl)imidazo[1,2-b]pyridazin-2-yl)-2-(pyrrolidin-3-yloxy)acetamide] | – | – | –
< 1000 | < 1000 | < 1000 | Nc1ncc(-c2ccc3nc(NC(=O)CCCN4CCCCC4)cn3n2)cc1C(F)(F)F [Example 71, N-(6-(6-amino-5-(trifluoromethyl)pyridin-3-yl)imidazo[1,2-b]pyridazin-2-yl)-4-(piperidin-1-yl)butanamide] | – | – | –
< 1000 | < 1000 | < 1000 | CC(=O)Nc1cn2nc(-c3cnc(N)c(OC(F)F)c3)ccc2n1 [Example 72, N-(6-(6-amino-5-(difluoromethoxy)pyridin-3-yl)imidazo[1,2-b]pyridazin-2-yl)acetamide] | – | – | –
< 1000 | < 1000 | < 1000 | COCC(=O)Nc1cn2nc(-c3cnc(N)c(C(F)(F)F)c3)ccc2n1 [Example 74, n-(6-(6-amino-5-(trifluoromethyl)pyridin-3-yl)imidazo[1,2-b]pyridazin-2-yl)-2-methoxyacetamide] | – | – | –
< 1000 | < 1000 | < 1000 | NCC(=O)Nc1cn2nc(-c3cnc(N)c(C(F)(F)F)c3)ccc2n1 [Example 77, 2-amino-N-(6-(6-amino-5-(trifluoromethyl)pyridin-3-yl)imidazo[1,2-b]pyridazin-2-yl)acetamide] | – | – | –
< 1000 | < 1000 | < 10000 | CC(C)(C)OC(=O)NCCCC(=O)Nc1cn2nc(-c3cnc(N)c(C(F)(F)F)c3)ccc2n1 [Example 79, tert-butyl 4-(6-(6-amino-5-(trifluoromethyl)pyridin-3-yl)imidazo[1,2-b]pyridazin-2-ylamino)-4-oxobutylcarbamate] | – | – | –
< 1000 | < 1000 | < 1000 | CNCC(=O)Nc1cn2cc(-c3cnc(N)c(C(F)(F)F)c3)ccc2n1 [Example 80, N-(6-(6-amino-5-(trifluoromethyl)pyridin-3-yl)imidazo[1,2-a]pyridin-2-yl)-2-(methylamino) acetamide] | – | – | –
< 1000 | < 1000 | < 1000 | CC(=O)Nc1cn2nc(-c3cnc(N)c(-c4ccccc4F)c3)ccc2n1 [Example 81, N-(6-(6-amino-5-(2-fluorophenyl)pyridin-3-yl)imidazo[1,2-b]pyridazin-2-yl)acetamide] | – | – | –
< 1000 | < 1000 | < 1000 | Nc1ncc(-c2ccc3nc(NC(=O)CO[C@H]4CCNC4)cn3n2)cc1C(F)(F)F [Example 82, (S)-N-(6-(6-amino-5-(trifluoromethyl)pyridin-3-yl)imidazo[1,2-b]pyridazin-2-yl)-2-(pyrrolidin-3-yloxy)acetamide] | – | – | –
< 1000 | < 1000 | < 1000 | CC(C)(C)OC(=O)N1CCN(c2ccc(C(=O)Nc3cn4cc(-c5cnc(N)c(C(F)(F)F)c5)ccc4n3)cn2)CC1 [Example 85, tert-butyl 4-(5-(6-(6-amino-5-(trifluoromethyl)pyridin-3-yl)imidazo[1,2-a]pyridin-2-ylcarbamoyl)pyridin-2-yl)piperazine-1-carboxylate] | – | – | –
< 1000 | < 1000 | < 1000 | CC(=O)Nc1cn2nc(-c3cnc(N)c(Cl)c3)ccc2n1 [Example 87, N-(6-(6-amino-5-chloropyridin-3-yl)imidazo[1,2-b]pyridazin-2-yl)acetamide] | – | – | –
< 1000 | < 1000 | < 1000 | COCC(=O)Nc1cn2cc(-c3cnc(N)c(OCC(F)(F)F)n3)ccc2n1 [Example 89] | – | – | –
< 1000 | < 1000 | < 1000 | CC(=O)Nc1cn2nc(-c3cnc(N)c(-c4ccccc4OC(F)(F)F)c3)ccc2n1 [Example 90, N-(6-(6-amino-5-(2-(trifluoromethoxy)phenyl)pyridin-3-yl)imidazo[1,2-b]pyridazin-2-yl)acetamide] | – | – | –
< 1000 | < 1000 | < 1000 | Cc1cc(C(=O)Nc2cn3cc(-c4cnc(N)c(C(F)(F)F)c4)ccc3n2)no1 [Example 94, N-(6-(6-amino-5-(trifluoromethyl)pyridin-3-yl)imidazo[1,2-a]pyridin-2-yl)-5-methylisoxazole-3-carboxamide] | – | – | –

— US20100075965A1, “PI3 KINASE INHIBITORS AND METHODS OF THEIR USE” (Novartis AG, priority 2006, published 2010)
